# Laboratory results: PubChem BioAssay (NCI)
#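 How tested: cells in 96-well plates exposed to compound for 48 hours at five concentrations. The concentration for 50% growth inhibition is given as GI50. TGI marks complete inhibition of growth.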
# Experiments:
# Assay in all cases: growth of human tumour cells (NCI), 48 h
# [1] = system: OVCAR-4 ovarian
# [2] = system: SW-620 colon
# [3] = system: T-47D breast
# [4] = system: SN12C renal
# [5] = system: NCI-H226 lung
# [6] = system: PC-3 prostate
# [7] = system: HS 578T breast
# [8] = system: SR leukemia
SMILES,GI50 [1],TGI [1],GI50 [2],TGI [2],GI50 [3],TGI [3],GI50 [4],TGI [4],GI50 [5],TGI [5],GI50 [6],TGI [6],GI50 [7],TGI [7],GI50 [8],TGI [8]
O=C1CC/C(=C\COc2ccc3ccc(=O)oc3c2)O1,4.78 µM,23.7 µM,2.35 µM,14.9 µM,4.83 µM,27.1 µM,10.3 µM,28.8 µM,22.4 µM,83.1 µM,1.68 µM,18.3 µM,11.7 µM,81.7 µM,–,–
CCC(=O)c1ccc2c(c1)N(CCCN1CCN(CCO)CC1)c1ccccc1S2,12.9 µM,25.6 µM,16.1 µM,31 µM,14 µM,31.5 µM,16.3 µM,33 µM,17.6 µM,33.8 µM,11.5 µM,25.2 µM,13.3 µM,36.5 µM,11.7 µM,28.7 µM
COc1ccc(-c2cc(-c3nnc(SCC(=O)Nc4ccc(C(C)=O)cc4)o3)c3ccccc3n2)cc1,–,–,> 100 µM,> 100 µM,> 100 µM,> 100 µM,> 100 µM,> 100 µM,43.6 µM,> 100 µM,> 100 µM,> 100 µM,14.2 µM,92.3 µM,–,–
Cc1ccccc1C(C(=O)NC1CCCCC1)N(C(=O)Cn1ccnc1C)c1cccc(F)c1 (stereo not drawn),> 76.7 µM,> 100 µM,> 100 µM,> 100 µM,> 58.4 µM,> 100 µM,> 53.4 µM,> 100 µM,> 87.4 µM,> 100 µM,> 100 µM,> 100 µM,28.2 µM,> 100 µM,> 100 µM,> 100 µM
COc1ccc(-c2csc3c2-n2cccc2C3=O)cc1O,0.579 µM,> 100 µM,< 0.0122 µM,> 100 µM,39.4 µM,> 100 µM,0.0365 µM,> 100 µM,12.1 µM,> 46.6 µM,0.265 µM,> 100 µM,< 0.0165 µM,> 100 µM,< 0.01 µM,31.9 µM
CC1(C)Cc2c(Br)c(Br)c(Br)c(OCC(O)CN3CCOCC3)c2O1 (stereo not drawn),19.3 µM,> 100 µM,15.6 µM,29.8 µM,13.1 µM,27.3 µM,17.4 µM,33.5 µM,15.2 µM,34.9 µM,7.93 µM,20.7 µM,17.2 µM,47.4 µM,5.14 µM,18.4 µM
COC(=O)[C@@H]1CCCN1C(=O)[C@H]1CCCN1C(=O)[C@@H](Cc1c[nH]c2ccccc12)NC(=S)Nc1cc(C(F)(F)F)cc(C(F)(F)F)c1,2.29 µM,7.55 µM,3.19 µM,11.2 µM,2.44 µM,7.53 µM,3.14 µM,10.9 µM,2.86 µM,11.7 µM,1.75 µM,3.98 µM,2.94 µM,13.4 µM,2.48 µM,6.3 µM
COc1ccc2[nH]cc(-c3nc(-c4c[nH]c5ccncc45)cs3)c2c1,2.94 µM,8.85 µM,1.93 µM,3.84 µM,–,–,1.83 µM,3.61 µM,2.36 µM,6.58 µM,2.13 µM,5.23 µM,2.15 µM,4.95 µM,–,–
